Calls of active or inactive are those of the source.
Key:
[1] = Counterscreen for IDE inhibitors: Luminescence-based cell-based high throughput dose response assay to identify compounds that are cytotoxic to HEK cells. [Related pubchem assays: 434962 (Primary screen (IDE inhibitors in singlicate)), 449730 (Counterscreen (Cytotoxicity in triplicate)), 435028 (Confirmation (IDE inhibitors in triplicate)) …; type: functional; conditions: HEK293
Insulin-degrading enzyme = target: T1, Insulin-degrading enzyme (Homo sapiens, UniProt P14735); assay: Dose Response: Fluorescence polarization-based cell-based high throughput dose response assay for inhibitors of insulin-degrading enzyme (IDE). [Related pubchem assays: 434962 (Primary screen (IDE inhibitors in singlicate)), 449730 (Counterscreen (Cytotoxicity in triplicate)), 435028 (Confirmation (IDE inhibitors in triplicate)), 434984 (Summary …; type: functional
T1 sequence (P14735 whole entry): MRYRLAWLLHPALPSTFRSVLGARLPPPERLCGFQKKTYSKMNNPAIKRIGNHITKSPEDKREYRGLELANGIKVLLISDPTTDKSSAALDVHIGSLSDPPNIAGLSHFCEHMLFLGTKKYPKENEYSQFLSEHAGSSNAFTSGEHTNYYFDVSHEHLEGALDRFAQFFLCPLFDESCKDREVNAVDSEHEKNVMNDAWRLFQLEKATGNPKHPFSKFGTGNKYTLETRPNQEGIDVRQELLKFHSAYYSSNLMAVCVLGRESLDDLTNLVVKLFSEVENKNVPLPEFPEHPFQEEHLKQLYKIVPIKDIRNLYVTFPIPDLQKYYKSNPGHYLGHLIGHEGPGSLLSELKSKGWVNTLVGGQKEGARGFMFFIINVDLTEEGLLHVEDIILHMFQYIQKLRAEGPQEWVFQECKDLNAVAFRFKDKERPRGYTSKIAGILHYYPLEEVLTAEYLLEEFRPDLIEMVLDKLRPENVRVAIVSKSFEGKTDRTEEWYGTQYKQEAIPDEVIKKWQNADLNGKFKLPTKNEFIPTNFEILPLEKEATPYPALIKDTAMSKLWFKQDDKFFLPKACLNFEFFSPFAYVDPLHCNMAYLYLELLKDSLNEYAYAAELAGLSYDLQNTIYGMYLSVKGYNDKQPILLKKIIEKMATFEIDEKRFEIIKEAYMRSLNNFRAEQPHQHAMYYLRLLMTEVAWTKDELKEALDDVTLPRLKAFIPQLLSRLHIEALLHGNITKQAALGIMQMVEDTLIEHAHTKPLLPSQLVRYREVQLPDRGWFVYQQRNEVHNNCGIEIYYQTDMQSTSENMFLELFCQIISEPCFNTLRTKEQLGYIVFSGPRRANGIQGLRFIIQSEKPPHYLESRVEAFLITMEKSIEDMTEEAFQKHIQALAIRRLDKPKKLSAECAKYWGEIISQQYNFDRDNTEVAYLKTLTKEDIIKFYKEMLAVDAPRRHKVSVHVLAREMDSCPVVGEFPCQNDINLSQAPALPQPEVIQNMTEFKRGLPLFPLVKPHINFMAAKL

[2] = target: T2, Sentrin-specific protease 1 (Homo sapiens, UniProt Q9P0U3); assay: potency of human SENP1 inhibitors, dose response, biochemical, kinetic FRET (AID 651697); type: functional; conditions: read-out: IC50_Mean
T2 sequence (Q9P0U3 whole entry): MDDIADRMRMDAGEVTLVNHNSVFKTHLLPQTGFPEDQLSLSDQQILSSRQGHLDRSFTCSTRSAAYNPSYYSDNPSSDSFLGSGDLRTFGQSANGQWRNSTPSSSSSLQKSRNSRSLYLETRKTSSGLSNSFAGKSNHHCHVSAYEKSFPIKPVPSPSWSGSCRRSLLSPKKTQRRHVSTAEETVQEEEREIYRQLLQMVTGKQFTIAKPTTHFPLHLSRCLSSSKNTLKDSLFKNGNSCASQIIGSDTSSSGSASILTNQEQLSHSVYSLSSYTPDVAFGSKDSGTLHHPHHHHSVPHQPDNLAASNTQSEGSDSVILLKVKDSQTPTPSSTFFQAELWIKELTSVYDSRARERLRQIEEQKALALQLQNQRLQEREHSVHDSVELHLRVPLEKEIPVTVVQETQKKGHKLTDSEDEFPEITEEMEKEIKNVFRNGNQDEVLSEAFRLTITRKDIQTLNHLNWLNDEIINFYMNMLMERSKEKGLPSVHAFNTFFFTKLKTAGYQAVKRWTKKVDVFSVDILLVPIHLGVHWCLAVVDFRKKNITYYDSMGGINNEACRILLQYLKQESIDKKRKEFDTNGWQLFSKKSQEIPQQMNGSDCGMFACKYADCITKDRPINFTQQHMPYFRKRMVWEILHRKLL

[3] = target: T2, Sentrin-specific protease 1; assay: Dose response confirmation of small molecule inhibitors of the catalytic domain of the SUMO protease, SENP1 in a FRET assay.; type: functional; conditions: read-out: IC50_Mean
[4] = target: Neuropeptide Y receptor type 1 (Homo sapiens, UniProt P25929); type: functional;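 also: HEK293 cells with a CNG channel challenged with NPY then isoproterenol; potency as antagonist that reverses NPY suppression of cAMP signal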
Chain of Neuropeptide Y receptor type 1 (P25929 whole entry): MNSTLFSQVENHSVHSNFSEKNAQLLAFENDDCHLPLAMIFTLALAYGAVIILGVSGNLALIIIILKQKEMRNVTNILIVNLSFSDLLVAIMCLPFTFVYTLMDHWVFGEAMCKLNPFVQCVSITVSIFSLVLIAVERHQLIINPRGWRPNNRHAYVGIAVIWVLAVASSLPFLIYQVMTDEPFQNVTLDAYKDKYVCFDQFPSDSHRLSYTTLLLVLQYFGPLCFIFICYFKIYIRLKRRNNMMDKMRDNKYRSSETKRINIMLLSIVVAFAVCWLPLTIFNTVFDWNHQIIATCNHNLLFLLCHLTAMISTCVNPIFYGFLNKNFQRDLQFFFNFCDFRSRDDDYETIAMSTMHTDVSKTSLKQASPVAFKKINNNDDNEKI

[5] = target: Neuropeptide Y receptor type 2 (Homo sapiens, UniProt P49146); type: functional, cell-based;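 also: HEK293 cells expressing the receptor and a CNG channel; stimulus was NPY near EC95 followed by isoproterenol to raise cAMP; antagonist potency measured as restoring cAMP signal that NPY suppresses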
Chain of Neuropeptide Y receptor type 2 (P49146 whole entry): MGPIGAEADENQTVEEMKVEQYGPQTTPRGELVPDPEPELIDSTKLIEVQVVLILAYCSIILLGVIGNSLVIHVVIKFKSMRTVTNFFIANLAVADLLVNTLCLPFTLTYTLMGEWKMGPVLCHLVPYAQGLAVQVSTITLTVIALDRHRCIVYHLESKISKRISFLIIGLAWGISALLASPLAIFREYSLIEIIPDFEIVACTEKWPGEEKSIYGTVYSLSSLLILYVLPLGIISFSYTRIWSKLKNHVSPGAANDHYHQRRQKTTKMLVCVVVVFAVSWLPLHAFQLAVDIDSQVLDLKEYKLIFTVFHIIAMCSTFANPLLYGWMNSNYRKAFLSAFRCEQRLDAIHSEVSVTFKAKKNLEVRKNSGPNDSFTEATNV

Protein skinhead-1 = target: T3, Protein skinhead-1 (Caenorhabditis elegans, UniProt P34707); type: functional
T3 sequence (P34707 whole entry): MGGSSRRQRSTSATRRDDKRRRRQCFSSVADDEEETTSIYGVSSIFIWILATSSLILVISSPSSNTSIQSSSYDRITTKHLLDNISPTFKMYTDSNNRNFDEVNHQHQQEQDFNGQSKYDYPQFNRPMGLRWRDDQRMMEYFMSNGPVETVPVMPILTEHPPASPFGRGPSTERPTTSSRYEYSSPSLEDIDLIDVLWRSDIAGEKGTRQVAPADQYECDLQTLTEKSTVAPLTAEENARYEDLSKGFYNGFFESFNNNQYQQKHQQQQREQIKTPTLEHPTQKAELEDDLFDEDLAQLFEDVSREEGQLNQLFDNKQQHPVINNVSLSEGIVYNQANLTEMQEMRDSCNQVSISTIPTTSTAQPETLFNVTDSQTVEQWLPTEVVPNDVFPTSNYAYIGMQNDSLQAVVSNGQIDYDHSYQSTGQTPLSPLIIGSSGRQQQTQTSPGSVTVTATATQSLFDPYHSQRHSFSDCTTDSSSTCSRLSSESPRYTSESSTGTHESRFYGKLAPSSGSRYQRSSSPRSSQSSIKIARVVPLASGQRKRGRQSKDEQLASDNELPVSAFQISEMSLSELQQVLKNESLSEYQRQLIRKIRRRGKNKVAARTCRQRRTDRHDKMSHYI

[6] = target: T4, Tyrosine-protein phosphatase non-receptor type 7 (Homo sapiens, UniProt P35236); type: functional
T4 sequence (P35236 whole entry): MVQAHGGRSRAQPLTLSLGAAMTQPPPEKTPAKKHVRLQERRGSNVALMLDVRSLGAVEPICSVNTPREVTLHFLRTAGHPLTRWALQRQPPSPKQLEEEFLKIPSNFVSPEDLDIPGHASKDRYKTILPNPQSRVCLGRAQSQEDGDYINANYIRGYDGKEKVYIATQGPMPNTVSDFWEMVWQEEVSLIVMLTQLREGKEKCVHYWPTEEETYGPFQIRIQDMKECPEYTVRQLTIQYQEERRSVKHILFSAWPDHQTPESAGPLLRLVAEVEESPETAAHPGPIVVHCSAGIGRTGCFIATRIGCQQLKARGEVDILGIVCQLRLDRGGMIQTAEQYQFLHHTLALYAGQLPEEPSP

[7] = target: Glyceraldehyde-3-phosphate dehydrogenase (Homo sapiens, UniProt P04406)
Chain of Glyceraldehyde-3-phosphate dehydrogenase (P04406 whole entry): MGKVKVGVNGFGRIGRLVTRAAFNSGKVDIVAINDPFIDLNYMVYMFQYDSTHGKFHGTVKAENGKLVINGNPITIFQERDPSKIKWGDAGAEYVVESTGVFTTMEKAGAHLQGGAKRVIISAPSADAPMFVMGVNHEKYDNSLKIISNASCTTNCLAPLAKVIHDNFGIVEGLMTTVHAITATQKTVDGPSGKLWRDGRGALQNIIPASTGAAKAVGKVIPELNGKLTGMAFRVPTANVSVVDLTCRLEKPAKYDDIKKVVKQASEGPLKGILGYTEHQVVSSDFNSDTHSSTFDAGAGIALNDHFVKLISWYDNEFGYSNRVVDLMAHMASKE

[8] = target: Heat shock cognate 71 kDa protein (Homo sapiens, UniProt P11142); assay: In Vitro Hsc70 Dose Response Fluorescence Polarization Assay. [Related pubchem assays: 1072 ]
Chain of Heat shock cognate 71 kDa protein (P11142 whole entry): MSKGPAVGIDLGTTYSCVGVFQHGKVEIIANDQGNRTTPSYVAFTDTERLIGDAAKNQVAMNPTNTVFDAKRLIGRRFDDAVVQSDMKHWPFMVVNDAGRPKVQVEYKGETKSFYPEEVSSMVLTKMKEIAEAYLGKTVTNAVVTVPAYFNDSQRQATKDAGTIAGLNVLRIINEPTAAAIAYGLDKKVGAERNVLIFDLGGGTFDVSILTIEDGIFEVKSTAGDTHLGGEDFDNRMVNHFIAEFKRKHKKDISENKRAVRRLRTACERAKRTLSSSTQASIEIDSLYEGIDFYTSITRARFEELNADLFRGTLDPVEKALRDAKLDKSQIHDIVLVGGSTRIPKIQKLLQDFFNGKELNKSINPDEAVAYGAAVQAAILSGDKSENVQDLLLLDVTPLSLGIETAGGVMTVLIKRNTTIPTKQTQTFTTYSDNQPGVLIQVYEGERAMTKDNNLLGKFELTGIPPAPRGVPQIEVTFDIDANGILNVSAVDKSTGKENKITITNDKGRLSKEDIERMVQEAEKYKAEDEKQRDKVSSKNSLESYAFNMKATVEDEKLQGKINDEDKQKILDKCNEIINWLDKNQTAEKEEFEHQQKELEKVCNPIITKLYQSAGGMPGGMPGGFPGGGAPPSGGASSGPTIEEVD

[9] = target: Heat shock 70 kDa protein 1A (Homo sapiens, UniProt P0DMV8); assay: Hsp70 inhibitors, SAR follow-up, biochemical, fluorescence polarization (AID 1072)
Chain of Heat shock 70 kDa protein 1A (P0DMV8 whole entry): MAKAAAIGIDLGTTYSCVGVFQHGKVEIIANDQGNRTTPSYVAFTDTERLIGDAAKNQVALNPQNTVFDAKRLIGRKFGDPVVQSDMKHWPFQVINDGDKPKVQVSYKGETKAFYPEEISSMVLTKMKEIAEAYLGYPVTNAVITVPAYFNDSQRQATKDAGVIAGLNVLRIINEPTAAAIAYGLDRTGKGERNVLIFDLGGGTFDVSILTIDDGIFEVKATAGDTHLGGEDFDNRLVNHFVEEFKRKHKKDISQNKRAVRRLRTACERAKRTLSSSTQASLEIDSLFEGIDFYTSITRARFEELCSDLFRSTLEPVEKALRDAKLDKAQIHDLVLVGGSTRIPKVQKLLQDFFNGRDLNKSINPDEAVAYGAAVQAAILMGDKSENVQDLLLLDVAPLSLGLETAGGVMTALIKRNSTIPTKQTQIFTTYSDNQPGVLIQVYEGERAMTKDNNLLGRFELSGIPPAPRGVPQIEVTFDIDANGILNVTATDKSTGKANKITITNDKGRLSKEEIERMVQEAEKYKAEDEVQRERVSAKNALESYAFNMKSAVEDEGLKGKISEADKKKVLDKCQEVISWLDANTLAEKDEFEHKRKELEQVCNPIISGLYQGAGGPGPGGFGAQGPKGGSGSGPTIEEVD

[10] = target: T5, Dual specificity protein phosphatase 6 (Rattus norvegicus, UniProt Q64346)
T5 sequence (Q64346 whole entry): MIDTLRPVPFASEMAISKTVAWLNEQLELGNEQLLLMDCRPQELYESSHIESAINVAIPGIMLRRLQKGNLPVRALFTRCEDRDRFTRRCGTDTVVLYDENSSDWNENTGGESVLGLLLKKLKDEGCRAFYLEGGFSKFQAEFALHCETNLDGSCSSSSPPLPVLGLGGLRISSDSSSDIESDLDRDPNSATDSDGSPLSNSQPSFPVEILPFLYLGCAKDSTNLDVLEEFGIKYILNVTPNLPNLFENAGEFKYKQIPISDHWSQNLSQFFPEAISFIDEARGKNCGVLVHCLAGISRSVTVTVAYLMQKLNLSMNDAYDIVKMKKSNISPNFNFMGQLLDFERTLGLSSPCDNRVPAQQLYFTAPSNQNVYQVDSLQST

[11] = target: T5, Dual specificity protein phosphatase 6; type: functional
[12] = target: T6, Alkaline phosphatase, tissue-nonspecific isozyme (Homo sapiens, UniProt P05186)
T6 sequence (P05186 whole entry): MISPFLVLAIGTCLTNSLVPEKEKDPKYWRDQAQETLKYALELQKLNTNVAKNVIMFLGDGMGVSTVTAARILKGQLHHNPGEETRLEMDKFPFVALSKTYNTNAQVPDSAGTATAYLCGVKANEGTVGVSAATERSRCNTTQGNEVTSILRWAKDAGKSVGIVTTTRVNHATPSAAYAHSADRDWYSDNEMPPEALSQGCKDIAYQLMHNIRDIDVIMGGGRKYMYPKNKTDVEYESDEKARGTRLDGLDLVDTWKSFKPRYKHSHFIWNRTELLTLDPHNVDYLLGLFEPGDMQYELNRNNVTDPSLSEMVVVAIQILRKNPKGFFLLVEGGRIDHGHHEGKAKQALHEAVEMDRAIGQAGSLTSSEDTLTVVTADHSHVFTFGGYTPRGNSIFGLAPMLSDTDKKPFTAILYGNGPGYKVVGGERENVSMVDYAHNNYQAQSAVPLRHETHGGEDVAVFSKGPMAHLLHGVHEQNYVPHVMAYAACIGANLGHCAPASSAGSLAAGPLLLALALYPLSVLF

[13] = inhibitors of intracellular T. cruzi replication, confirmation, NIH3T3 host cells, beta-gal luminescence (AID 2044); type: functional, cell-based;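 also: intracellular parasites grown in NIH/3T3 mouse fibroblasts as host cells; luminescent beta-galactosidase reporter signal from transgenic T. cruzi replicating inside host cells; inhibitors lower the luminescence signal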
[14] = cytotoxicity toward NIH3T3 fibroblasts, dose response, counter-screen, cell-based, ATP luminescence, mouse fibroblasts (AID 2010); type: functional;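 also: cells exposed to compound for about 90 hours before reading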

Structure (SMILES): CCN(CC)C(=O)Cn1cc(C(=O)C(=O)N2CC=C(c3ccccc3)CC2)c2ccccc21
- IC50 [1]: 24.4 µM (not active)
- IC50 (Insulin-degrading enzyme): 35.1 µM (not active)
- IC50 [2]: 20.4 µM (inactive)
- IC50 [3]: 7.95 µM (active)

Structure (SMILES): c1ccc(-c2nc(CSc3nnc(-c4cccs4)o3)cs2)cc1
- IC50 [4]: 12.8 µM (not active)
- IC50 [5]: 17.3 µM (not active)
- IC50 (Protein skinhead-1): > 100 µM (inactive)

Structure (SMILES): CCOC(=O)c1ccccc1OC(=O)c1ccc2c(c1)C1C=CCC1C(C(=O)O)N2 (stereo unspecified)
- IC50 [6]: 3.3 µM (active)
- IC50 [7]: > 100 µM (not active)
- IC50 [8]: 112 µM (active)
- IC50 [9]: 35.1 µM (active)
- IC50 [10]: 14.1 µM (active)
- IC50 [11]: 6.01 µM (active)

Structure (SMILES): CCOC(=O)c1c(NC(=O)N/N=C/c2ccccc2OCC)sc(C(C)=O)c1C
- EC50 [12]: > 100 µM (not active)
- EC50 [13]: 2.88 µM (active)
- EC50 [14]: > 60 µM (not active)
